Reference: US20120107275A1, “FUSED HETEROCYCLIC DERIVATIVES AND METHODS OF USE” (Amgen Inc., priority 2006, published 2012)

Tests used:
[1] = molecular target: T1, c-Met kinase domain (GST-cMet) (Homo sapiens, UniProt P08581); assay: c-Met receptor assay (HTRF kinase assay with GST-cMet (P) enzyme, gastrin and ATP); type: biochemical; conditions: for Ki: illustrative activity values, HTRF kinase assay with GST-cMet (P) enzyme; for IC50: c-Met receptor assay
T1 construct: A PCR product covering residues 1058-1365 of c-Met (c-Met kinase domain); made in house; host or cells: High5 insect cells (baculovirus, BacToBac)
T1 sequence (P08581 1058-1365): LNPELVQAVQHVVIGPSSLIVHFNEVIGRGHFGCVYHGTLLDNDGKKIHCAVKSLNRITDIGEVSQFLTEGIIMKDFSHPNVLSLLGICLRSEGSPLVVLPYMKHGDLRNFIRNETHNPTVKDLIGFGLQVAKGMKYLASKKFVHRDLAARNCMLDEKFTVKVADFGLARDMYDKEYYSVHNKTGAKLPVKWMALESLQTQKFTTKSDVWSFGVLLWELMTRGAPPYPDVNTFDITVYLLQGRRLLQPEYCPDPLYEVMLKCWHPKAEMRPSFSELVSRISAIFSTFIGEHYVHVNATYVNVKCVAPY
Procedure: Cloning, Expression and Purification of c-Met Kinase Domain
The PCR product is cloned into a modified pFastBac1 expression vector (harboring the gene for S. japonicum glutathione S-transferase immediately upstream of the multiple cloning site) using standard molecular biological techniques. The GST-c-Met kinase domain fusion (GST-Met) gene is transposed into full-length baculovirus DNA using the BacToBac™ system (Invitrogen). High5 cells are infected with the recombinant baculovirus for 72 h at 27° C. The infected cells are harvested by centrifugation and the pellet is stored at −80° C. The pellet is resuspended in buffer A (50 mM HEPES, pH 8.0, 0.25 M NaCl, 10 mM 2-mercaptoethanol, 10% (w/v) glycerol, 0.5% (v/v) protease inhibitor cocktail (Sigma P8340), stirred at 4° C. to homogeneity, and the cells are disrupted by microfluidization (Microfluidics) at 10,000 psi. The resulting lysate is centrifuged at 50,000×g for 90 min at 4° C., and the supernatant is adsorbed onto 10 mL of glutathione Sepharose™ 4B (Amersham) by batch method. The slurry is rocked gently overnight at 4° C. The glutathione resin is harvested by centrifugation and washed three times with 40 mL buffer A by batch method. The resin is washed three times with buffer B (buffer A adjusted to 0.1 M NaCl, less protease inhibitors). The protein is eluted with buffer B containing 25 mM reduced glutathione. Eluted fractions are analyzed by SDS-PAGE and concentrated to <10 mL (˜10 mg/mL total protein). The concentrated protein is separated by Superdex™ 200 (Amersham) size exclusion chromatography in buffer C (25 mM Tris, pH 7.5, 0.1 M NaCl, 10 mM 2-mercaptoethanol, 10% glycerol). The fractions are analyzed by SDS-PAGE and the appropriate fractions are pooled and concentrated to ˜1 mg/mL. The protein is aliquotted and stored at −80° C.
Alternative Purification of Human GST-cMET from Baculovirus Cells
The resin is washed with 10 column volumes (100 mL) of Lysis Buffer. […] The elution is collected as 15 mL fractions. Aliquots of the elution fractions are run on SDS PAGE (12% Tris Glycine gel, Invitrogen, #EC6005BOX). The gel is stained with 0.25% Coomassie Blue stain. Fractions with GST-cMET are concentrated with a Vivaspin 20 mL Concentrator (#VS2002; […]) to a final volume less than 2.0 ml. […] The GST-cMET is eluted with an isocratic run of the above buffer, with the eluent collected in 1.0 mL fractions. Fractions with significant OD280 readings are run on another 12% Tris Glycine gel. The peak tubes with GST-cMET are pooled and the OD280 is read with the column buffer listed above as the blank buffer.
Phosphorylation of the purified GST-cMET is performed by incubating the protein for 3 h at RT with the following:
After incubation, the solution is concentrated in a Vivaspin 20 ml Concentrator to a volume less than 2.00 ml. The solution is applied to the same Superdex 75 16/60 column used above after re-equilibration. The GST-cMET is eluted as described above. The elution fractions corresponding to the first eluted peak on the chromatogram are run on a 12% Tris Glycine gel, as above, to identify the fractions with GST-cMET. Fractions are pooled and the OD280 is read with the column buffer used as the blank.
A Kinase reaction Buffer is prepared as follows:
When the assay is carried out, freshly add:
The HTRF buffer contains:
1. […] 2. […] Then incubate the plate at RT for 30 min. 3.
Use Biomek FX to add 20 μl ATP and Gastrin working solution to the assay plate to start reaction, incubate the plate at RT for 1 h. 4.
KM ATP, KM gastrin for various enzymes were determined by HTRF/^33P labeling and HTRF methods.

c-Met [2] = molecular target: T2, c-Met (Homo sapiens, UniProt P08581); assay: c-Met cell-based autophosphorylation assay, PC3 cells (HGF stimulated, IGEN readout); conditions: HGF 250 ng/mL
T2 construct: host or cells: PC3 (human)
T2 sequence (P08581 25-1390): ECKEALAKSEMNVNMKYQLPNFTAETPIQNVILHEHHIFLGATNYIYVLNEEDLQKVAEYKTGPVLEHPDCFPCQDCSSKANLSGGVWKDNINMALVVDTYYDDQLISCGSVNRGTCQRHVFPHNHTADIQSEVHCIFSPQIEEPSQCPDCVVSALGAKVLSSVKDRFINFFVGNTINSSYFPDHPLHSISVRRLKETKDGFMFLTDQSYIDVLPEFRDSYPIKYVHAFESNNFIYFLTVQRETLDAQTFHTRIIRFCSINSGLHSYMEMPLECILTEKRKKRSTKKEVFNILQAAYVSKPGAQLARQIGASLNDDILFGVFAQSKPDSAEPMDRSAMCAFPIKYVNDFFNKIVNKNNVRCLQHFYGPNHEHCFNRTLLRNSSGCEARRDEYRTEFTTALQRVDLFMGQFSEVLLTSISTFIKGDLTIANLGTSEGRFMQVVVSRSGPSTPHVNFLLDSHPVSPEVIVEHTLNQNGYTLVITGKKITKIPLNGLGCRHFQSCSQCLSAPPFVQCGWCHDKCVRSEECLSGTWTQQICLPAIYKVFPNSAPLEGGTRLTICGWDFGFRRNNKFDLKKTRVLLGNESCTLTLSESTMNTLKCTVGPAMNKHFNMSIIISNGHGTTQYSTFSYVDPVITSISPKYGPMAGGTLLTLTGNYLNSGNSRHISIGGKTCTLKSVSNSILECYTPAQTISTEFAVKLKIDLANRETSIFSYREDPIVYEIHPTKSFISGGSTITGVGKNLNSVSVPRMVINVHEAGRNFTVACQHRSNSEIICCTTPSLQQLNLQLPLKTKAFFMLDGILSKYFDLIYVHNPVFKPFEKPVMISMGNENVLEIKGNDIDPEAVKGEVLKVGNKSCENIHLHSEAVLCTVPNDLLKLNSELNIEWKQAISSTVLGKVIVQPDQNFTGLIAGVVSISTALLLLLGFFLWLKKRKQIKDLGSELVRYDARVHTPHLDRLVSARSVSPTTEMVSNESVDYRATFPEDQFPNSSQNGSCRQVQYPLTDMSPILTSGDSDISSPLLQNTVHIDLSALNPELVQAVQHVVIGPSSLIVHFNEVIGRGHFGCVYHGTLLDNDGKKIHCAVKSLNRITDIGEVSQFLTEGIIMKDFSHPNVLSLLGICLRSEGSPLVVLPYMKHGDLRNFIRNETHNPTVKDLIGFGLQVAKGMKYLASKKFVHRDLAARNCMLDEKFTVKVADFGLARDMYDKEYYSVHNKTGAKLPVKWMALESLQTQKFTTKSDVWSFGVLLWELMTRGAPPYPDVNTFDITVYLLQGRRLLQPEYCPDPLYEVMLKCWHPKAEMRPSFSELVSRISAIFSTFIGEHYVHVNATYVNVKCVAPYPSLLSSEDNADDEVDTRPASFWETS
Procedure: (§1) c-Met Cell-Based Autophosphorylation Assay
(§2) Human PC3 and mouse CT26 cells are available obtained from ATCC. […] 2×10^4 cells in medium were plated per well in a 96 well plate and incubated at 37° C. overnight. The cells were serum-starved by replacing the growth media with basic medium (DMEM low glucose+0.1 BSA, 120 μL per well) at 37° C. for 16 h. […] Compound samples (2.4 μL per well) were diluted with basic medium (240 μL) in a 96 well plate. […] The cells were incubated at 37° C. for 1 h. A (2 mg/mL) solution of CHO-HGF (7.5 μL) was diluted with 30 mL basic medium to provide a final concentration of 500 ng/mL. This HGF-containing media (120 μL) was transferred to a 96 well plate. Compounds (1.2 μL) was added to the HGF-containing media and mixed well.
(§3) BSA/0.1% Tween20) by rotating for 30 min at RT. Antibody beads (25 μL) were transferred to a 96 well plate. Cell lysate solution (25 μL) was transferred added and the plate was shaken at RT for 1 h. […] 1×PBS (175 μL) was added to each well and the electrochemiluminescence was read by an IGEN M8. Raw data was analyzed using a 4-parameter fit equation in XLFit. IC50 values are then determined using Grafit software.

c-Met [3] = molecular target: T3, c-Met (Mus musculus, UniProt P16056); assay: c-Met cell-based autophosphorylation assay, CT26 cells (HGF stimulated, IGEN readout); conditions: HGF 250 ng/mL
T3 construct: host or cells: CT26 (mouse)
T3 sequence (P16056 25-1379): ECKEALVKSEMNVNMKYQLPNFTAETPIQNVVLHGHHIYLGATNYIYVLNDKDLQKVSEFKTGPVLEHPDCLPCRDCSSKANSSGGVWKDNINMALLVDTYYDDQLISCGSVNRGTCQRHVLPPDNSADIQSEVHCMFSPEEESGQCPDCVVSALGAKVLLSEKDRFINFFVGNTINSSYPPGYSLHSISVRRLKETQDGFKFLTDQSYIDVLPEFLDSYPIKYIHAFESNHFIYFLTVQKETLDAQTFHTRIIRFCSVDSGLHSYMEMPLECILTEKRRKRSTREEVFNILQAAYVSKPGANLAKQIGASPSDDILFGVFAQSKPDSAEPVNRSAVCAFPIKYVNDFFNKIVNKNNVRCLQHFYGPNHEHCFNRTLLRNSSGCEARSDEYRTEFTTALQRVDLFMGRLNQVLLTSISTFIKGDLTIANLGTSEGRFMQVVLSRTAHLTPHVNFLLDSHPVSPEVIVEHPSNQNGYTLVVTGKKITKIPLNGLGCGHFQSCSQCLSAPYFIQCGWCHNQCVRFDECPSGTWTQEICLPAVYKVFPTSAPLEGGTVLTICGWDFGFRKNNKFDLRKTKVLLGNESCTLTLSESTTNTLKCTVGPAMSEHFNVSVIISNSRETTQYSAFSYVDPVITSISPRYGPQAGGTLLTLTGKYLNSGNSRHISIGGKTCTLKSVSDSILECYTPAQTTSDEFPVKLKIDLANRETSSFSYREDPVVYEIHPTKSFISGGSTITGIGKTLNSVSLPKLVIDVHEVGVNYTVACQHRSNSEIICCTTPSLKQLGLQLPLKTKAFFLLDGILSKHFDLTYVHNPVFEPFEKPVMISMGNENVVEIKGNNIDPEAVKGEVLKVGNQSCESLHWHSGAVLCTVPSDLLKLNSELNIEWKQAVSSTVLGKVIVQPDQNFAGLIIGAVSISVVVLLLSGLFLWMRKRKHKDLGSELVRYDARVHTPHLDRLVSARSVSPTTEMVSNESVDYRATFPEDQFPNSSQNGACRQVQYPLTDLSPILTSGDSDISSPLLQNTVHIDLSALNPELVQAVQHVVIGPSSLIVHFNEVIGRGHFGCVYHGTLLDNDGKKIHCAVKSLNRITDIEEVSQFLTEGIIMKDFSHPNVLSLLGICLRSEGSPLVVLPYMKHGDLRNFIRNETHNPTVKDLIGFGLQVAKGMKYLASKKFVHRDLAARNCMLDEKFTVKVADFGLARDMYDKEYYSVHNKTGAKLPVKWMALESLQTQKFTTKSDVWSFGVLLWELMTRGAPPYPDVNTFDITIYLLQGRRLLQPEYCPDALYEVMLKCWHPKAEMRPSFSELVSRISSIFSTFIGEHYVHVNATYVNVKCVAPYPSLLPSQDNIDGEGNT
Procedure: as §1, §2, §3

c1ccc(-c2ccc3nnc(Cc4ccc5c(c4)OCO5)n3n2)cc1 [Example 326]
Ki [1]: 394 nM

CNC(=O)c1ccc(-c2ccc3nnc(COc4ccnc5cc(OC)ccc45)n3n2)s1 [Example 30, 5-(3-((7-methoxyquinolin-4-yloxy)methyl)-[1,2,4]triazolo[4,3-b]pyridazin-6-yl)-N-methylthiophene-2-carboxamide]
IC50 [1]: < 500 nM

Cc1csc(-c2cc(F)c3nnc([C@@H](C)n4ccc5ncccc5c4=O)n3c2)c1 [Example 511, (R)-6-(1-(8-fluoro-6-(4-methylthiophen-2-yl)-[1,2,4]-triazolo[4,3-a]pyridin-3-yl)ethyl)-1,6-naphthyridin-5(6H)-one]
Ki [1]: 0.5 nM

Fc1cc(-c2ccccc2)cn2c(Cc3ccc4ncccc4c3)nnc12 [Example 437, 6-((8-fluoro-6-phenyl-[1,2,4]triazolo[4,3-a]pyridin-3-yl)methyl)quinoline]
Ki [1]: 36.4 nM

COc1cnc2c(NCc3nnc4ccc(-c5cc(CO)no5)nn34)ccnc2c1 [Example 37, (5-(3-((7-methoxy-1,5-naphthyridin-4-ylamino)methyl)-[1,2,4]triazolo[4,3-b]pyridazin-6-yl)isoxazol-3-yl)methanol]
IC50 (c-Met [2]): < 1000 nM | IC50 [1]: < 500 nM | IC50 (c-Met [3]): < 1000 nM

COc1cnc2c(NCc3nnc4ccc(-c5cc(C(=O)O)no5)nn34)ccnc2c1 [Example 36, 5-(3-((7-methoxy-1,5-naphthyridin-4-ylamino)methyl)-[1,2,4]triazolo[4,3-b]pyridazin-6-yl)isoxazole-3-carboxylic acid]
IC50 (c-Met [2]): < 1000 nM | IC50 [1]: < 500 nM | IC50 (c-Met [3]): < 1000 nM

Cc1cc(-c2cc(F)c3nnc([C@@H](C)n4ccc5ncc(-c6cnn(C)c6)cc5c4=O)n3c2)on1 [Example 527, 6-((R)-1-(8-fluoro-6-(3-methylisoxazol-5-yl)-[1,2,4]-triazolo[4,3-a]pyridin-3-yl)ethyl)-3-(1-methyl-1H-pyrazol-4-yl)-1,6-naphthyridin-5(6H)-one]
Ki [1]: 0.3 nM

COc1ccc2c(OCc3nnc4ccc(-c5ccc(N(C)C)nc5)nn34)ccnc2c1 [Example 43, 5-(3-((7-methoxyquinolin-4-yloxy)methyl)-[1,2,4]triazolo[4,3-b]pyridazin-6-yl)-N,N-dimethylpyridin-2-amine]
IC50 (c-Met [2]): < 1000 nM | IC50 (c-Met [3]): < 1000 nM

C[C@H](c1nnc2c(F)cc(-c3cnn(CCO)c3)cn12)n1ccc2ncccc2c1=O [Example 509, (R)-6-(1-(8-fluoro-6-(1-(2-hydroxyethyl)-1H-pyrazol-4-yl)-[1,2,4]triazolo[4,3-a]pyridin-3-yl)ethyl)-1,6-naphthyridin-5(6H)-one]
Ki [1]: 3.2 nM

c1ccc(-c2ccc3nnc(COc4ccnc5ccccc45)n3n2)cc1 [Example 2, 4-((6-phenyl-[1,2,4]triazolo[4,3-b]pyridazin-3-yl)methoxy)quinoline]
IC50 (c-Met [2]): < 1000 nM | IC50 (c-Met [3]): < 1000 nM
